In brackets after ≈: the same amount, converted by molar mass. Like-named read-outs stand apart in the source and are kept apart here.
How the values were obtained:
[1] = system: M. tuberculosis H37Rv; assay: microbe, parasite or virus in culture; type: cell-based; set-up: MIC against wild-type M. tuberculosis strain (below moxifloxacin MIC): unit not given beside the values; conditions: for MIC: Mycobacterium tuberculosis
[2] = system: M. tuberculosis H37Rv strain; assay: Minimal effective dosage in the murine TB model; type: in vivo, Balb/C/J female mice; conditions: 25 mg/kg/j, Gavage
Protocol: Four-week-old Balb/C/J female mice were infected intravenously with 10^6 CFU of M. tuberculosis H37Rv strain. On the day following the infection (D1), 10 mice were sacrificed to determine the exact baseline values of spleen weight and CFU counts in the lungs. The remaining mice were allocated to the following treatment groups: an untreated negative control group for survival monitoring, a positive control group treated for 1 month with isoniazid (INH) 25 mg/kg/d, […] test groups were treated with Quin18 and Quin19 at increasing dosages (25 mg/kg/d; 50 mg/kg/d; 100 mg/kg/d; 150 mg/kg/d) given by oral gavage, and two additional test groups were treated intravenously with Quin18 25 mg/kg/d and 100 mg/kg/d. All the groups contained 10 mice and were treated from D1 to D28, 5 days a week. The parameters used for assessing the severity of infection and the effectiveness of treatments were survival rate, spleen weight, gross lung lesions and CFU counts in the lungs.
The minimal effective dosage was defined as the minimal dosage able to prevent mortality of the mice, spleen enlargement and the occurrence of gross lung lesions. CFU counts were considered to be a more precise way of determining the dose-ranging efficacy of Quin18 and Quin19.
Survival rates between groups were plotted on a Kaplan-Meier curve and compared using the log-rank test.

[3] = biological target: T1, M. tuberculosis DNA gyrase (Mycobacterium tuberculosis, UniProt P9WG45+P9WG47); assay: biochemical
[4] = biological target: T1, M. tuberculosis DNA gyrase; set-up: made in house; conditions: Table 2; published previously (Poissy et al. 2010); cited from earlier work
[5] = system: M. tuberculosis H37Rv; conditions: Table 2, published previously (Poissy et al. 2010); cited from earlier work
[6] = H37RV, Table 3, read-out: MIC M. tuberculosis H37Rv
[7] = H37Rv, Table 2, read-out: MIC (M. tuberculosis) WT

T1 sequence (P9WG47 whole entry): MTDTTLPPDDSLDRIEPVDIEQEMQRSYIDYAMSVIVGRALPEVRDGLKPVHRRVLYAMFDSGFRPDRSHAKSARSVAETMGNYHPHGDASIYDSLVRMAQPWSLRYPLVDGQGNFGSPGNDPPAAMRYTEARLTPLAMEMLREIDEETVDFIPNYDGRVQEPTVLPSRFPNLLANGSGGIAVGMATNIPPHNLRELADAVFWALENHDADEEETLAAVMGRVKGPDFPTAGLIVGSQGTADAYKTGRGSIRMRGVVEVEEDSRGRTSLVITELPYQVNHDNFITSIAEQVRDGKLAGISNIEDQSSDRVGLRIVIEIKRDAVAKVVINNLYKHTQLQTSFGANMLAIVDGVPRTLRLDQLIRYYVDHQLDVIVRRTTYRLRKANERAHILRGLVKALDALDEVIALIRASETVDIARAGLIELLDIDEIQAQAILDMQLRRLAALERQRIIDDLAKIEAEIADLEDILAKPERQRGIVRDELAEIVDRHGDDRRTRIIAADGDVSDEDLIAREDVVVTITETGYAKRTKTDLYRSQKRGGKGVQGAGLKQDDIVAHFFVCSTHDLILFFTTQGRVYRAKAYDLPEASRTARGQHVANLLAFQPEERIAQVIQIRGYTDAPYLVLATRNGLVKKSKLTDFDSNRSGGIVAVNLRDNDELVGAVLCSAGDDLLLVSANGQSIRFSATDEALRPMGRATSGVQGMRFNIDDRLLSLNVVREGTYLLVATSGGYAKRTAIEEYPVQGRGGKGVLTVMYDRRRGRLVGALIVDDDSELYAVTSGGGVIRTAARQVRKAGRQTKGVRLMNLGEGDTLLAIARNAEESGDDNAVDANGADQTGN
T1 sequence (P9WG45 whole entry): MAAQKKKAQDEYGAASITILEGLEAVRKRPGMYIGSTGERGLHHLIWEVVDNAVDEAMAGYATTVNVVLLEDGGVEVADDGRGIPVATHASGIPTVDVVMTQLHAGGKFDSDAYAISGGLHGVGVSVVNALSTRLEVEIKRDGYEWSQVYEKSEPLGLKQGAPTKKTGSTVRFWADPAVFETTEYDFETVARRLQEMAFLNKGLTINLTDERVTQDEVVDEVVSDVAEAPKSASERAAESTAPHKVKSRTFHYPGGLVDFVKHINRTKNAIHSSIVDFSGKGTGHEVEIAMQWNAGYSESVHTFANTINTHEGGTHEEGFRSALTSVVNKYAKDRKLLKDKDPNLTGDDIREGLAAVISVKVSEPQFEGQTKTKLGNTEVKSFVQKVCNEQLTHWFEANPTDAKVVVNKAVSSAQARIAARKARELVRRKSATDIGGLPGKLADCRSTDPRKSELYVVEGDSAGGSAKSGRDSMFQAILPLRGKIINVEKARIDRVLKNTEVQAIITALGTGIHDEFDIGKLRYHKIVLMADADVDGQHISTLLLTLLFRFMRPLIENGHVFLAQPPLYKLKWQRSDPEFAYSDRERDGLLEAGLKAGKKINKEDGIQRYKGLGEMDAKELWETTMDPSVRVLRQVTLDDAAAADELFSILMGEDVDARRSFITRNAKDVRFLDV

SMILES | MIC [1, 6] [µM] | IC50 [3] [µM] | MIC [1, 7] [µM] | also measured
COc1c(N2C[C@@H]3CCCN[C@@H]3C2)c(F)cc2c(=O)c(C(=O)O)cn(C3CC3)c12 [Moxifloxacin, moxifloxacin, reference compound] | 1.2 (≈ 0.482 µg/mL) |  |  | MIC against wild-type M. tuberculosis strain (below moxifloxacin MIC) ([1]; Table 3): 1.2
CCCCCCCN1CCN(c2c(F)cc3c(=O)c(C(=O)O)cn(C4CC4)c3c2OC)CC1 [Compound 15, 1-cyclopropyl-6-fluoro-7-(4-heptylpiperazin-1-yl)-8-methoxy-4-oxo-1,4-dihydroquinoline-3-carboxylic acid] | 2.2 (≈ 1.01 µg/mL) |  |  | 
NNC(=O)c1ccncc1 [Isoniazid, isoniazid, reference compound] |  |  |  | Spleen weight [2]: 237 ± 73.8 mg; Survival: No. death ([2]; D1 to D28, 5 days a week, 10 mice): 0
CCCCCCCCCCCN1CCN(c2c(F)cc3c(=O)c(C(=O)O)cn(C4CC4)c3c2OC)CC1 [Compound 19, 1-cyclopropyl-6-fluoro-8-methoxy-4-oxo-7-(4-undecylpiperazin-1-yl)-1,4-dihydroquinoline-3-carboxylic acid] | 0.25 (≈ 0.129 µg/mL) |  |  | 
CCCCCN1CCN(c2cc3c(cc2F)c(=O)c(C(=O)O)cn3C2CC2)CC1 [Quin 15, 1-cyclopropyl-6-fluoro-4-oxo-7-(4-pentylpiperazin-1-yl)-1,4-dihydroquinoline-3-carboxylic acid] |  | 76 | 6 (≈ 2.41 µg/mL) | 
CCCCCCCCCN1CCN(c2c(F)cc3c(=O)c(C(=O)O)cn(C4CC4)c3c2OC)CC1 [Compound 17, 1-cyclopropyl-6-fluoro-8-methoxy-7-(4-nonylpiperazin-1-yl)-4-oxo-1,4-dihydroquinoline-3-carboxylic acid] | 0.12 (≈ 0.0585 µg/mL) |  |  | 
CCCCCN1CCN(c2c(F)cc3c(=O)c(C(=O)O)cn(C4CC4)c3c2OC)CC1 [Quin 17, 1-cyclopropyl-6-fluoro-8-methoxy-4-oxo-7-(4-pentylpiperazin-1-yl)-1,4-dihydroquinoline-3-carboxylic acid] |  | 60 | 3.5 (≈ 1.51 µg/mL) | 
CCCCCCCCCCCCCCCCN1CCN(c2cc3c(cc2F)c(=O)c(C(=O)O)cn3C2CC2)CC1 [Quin 10, 1-cyclopropyl-6-fluoro-7-(4-hexadecylpiperazin-1-yl)-4-oxo-1,4-dihydroquinoline-3-carboxylic acid] |  | 105 | 57 (≈ 31.7 µg/mL) | 
O=C(O)c1cn(C2CC2)c2cc(N3CCNCC3)c(F)cc2c1=O [Ciprofloxacin, ciprofloxacin, reference compound] |  |  | 1.5 (≈ 0.497 µg/mL) | 
COc1c(N2CCNC(C)C2)c(F)cc2c(=O)c(C(=O)O)cn(C3CC3)c12 (centres unmarked) [Gatifloxacin, gatifloxacin] |  |  |  | IC50 [4]: 6.8 µM; MIC (M. tuberculosis) WT [5]: 0.32 µM (≈ 0.12 µg/mL)
CCCCCCCCCCN1CCN(c2cc3c(cc2F)c(=O)c(C(=O)O)cn3C2CC2)CC1 [Quin 9, 1-cyclopropyl-7-(4-decylpiperazin-1-yl)-6-fluoro-4-oxo-1,4-dihydroquinoline-3-carboxylic acid] |  | 120 | 0.5 (≈ 0.236 µg/mL) | 
CCCCCCCCCCCCN1CCN(c2c(F)cc3c(=O)c(C(=O)O)cn(C4CC4)c3c2OC)CC1 [Compound 20, 1-cyclopropyl-7-(4-dodecylpiperazin-1-yl)-6-fluoro-8-methoxy-4-oxo-1,4-dihydroquinoline-3-carboxylic acid] | 0.47 (≈ 0.249 µg/mL) |  |  | 
CCCCCCCCN1CCN(c2cc3c(cc2F)c(=O)c(C(=O)O)cn3C2CC2)CC1 [Quin 16, 1-cyclopropyl-6-fluoro-7-(4-octylpiperazin-1-yl)-4-oxo-1,4-dihydroquinoline-3-carboxylic acid] |  | 135 | ≤ 0.2 | 
CCCCCCCCCCCCCCCCN1CCN(c2c(F)cc3c(=O)c(C(=O)O)cn(C4CC4)c3c2OC)CC1 [Quin 20, 1-cyclopropyl-6-fluoro-7-(4-hexadecylpiperazin-1-yl)-8-methoxy-4-oxo-1,4-dihydroquinoline-3-carboxylic acid] |  | 121 | 0.2 (≈ 0.117 µg/mL) | 
